In patent US9045438B2 (Silanes S.A. de C.V., priority 2002, dated 2015):

How the values were obtained:
[1] = test system: patients with uncontrolled type 2 diabetes mellitus; experiment: Random double blind clinical study in patients with uncontrolled type 2 diabetes mellitus, 90 days; format: in vivo, human; conditions: uncontrolled type 2 diabetes patients, final evaluation 90 days, dose by basal glycemia
From the text: Criteria for inclusion were as follows: • 1. […] Age 40 to 65; • 3. Capacity for deglutition; and • 4 Voluntary consent Criteria for exclusion were as follows: • 1. Pregnancy; • 2. Insulin treatment; and • 3. Personal background of systemic diseases such as: • a) Cardiac insufficiency; and • b) Hepatic or chronic hepatopathic insufficiency. • 4 Background of significant chronic complications with type 2 diabetes mellitus: • a) Renal insufficiency; • b) Ischemic cardiopathy; • c) Cerebral vascular disease; and • d) Visceral neuropathy. • 5. Background of short-term terminal diseases, such as: • a) Cancer; and • b) HIV • 6. […] Known intolerance or allergies to sulfonylureas or biguanides. Criteria for exclusion from the therapy, but not from the statistical analysis: • 1. Presence of severe hypoglycemia at the maximum dosages used in the study; • 2. Presence of severe hypoglycemia at the minimum dosages used in the study; • 3. Presence of intolerable undesirable effects with any of the medications used in the study; • 4. Failure to follow the medical treatment indicated; • 5. Failure to attend scheduled visits; • 6. Intercurrent illnesses or accidents that warrant hospitalization; • 7. […] Voluntary withdrawal from the study. The variables studied were as follows: • Dependent variables: • a) Glycemia between meals; • b) Glucosylated hemoglobin; • c) β cell function; • d) Insulin resistance; and • e) Metabolic profile. • Independent variable: • a) Hypoglycemic therapy. • Intervening variables: • a) Age; • b) Sex; • c) Body mass index; and • d) Evolution of diabetes. Clinical measurements and basal measurement of glycemia between meals, glucosylated hemoglobin, total cholesterol, cholesterol of high density lipoproteins, triglycerides, creatinine, uric acid, glutemic-oxaloacetic transaminase, glutemic-pyruvic transaminase, lactic dehydrogenase, alkaline and insulin phosphatase. Random assignment of patients to each group and pharmacological intervention in accordance with concentration of basal glycemia: [table] Clinical evaluation 30 and 60 days after beginning the study, measuring glycemia between meals and lactic dehydroginase. Final clinical evaluations 90 days after the study begins, measuring glycemia between meals, glucosylated hemoglobin, total cholesterol, high density lipoprotein cholesterol, triglyceride, creatinine, uric acid, glutemic-oxaloacetic transaminase, glutemic-pyruvic transaminase, lactic dehydrogenase, alkaline and insulin phosphatase. Undesirable effects were reported on a special record sheet, specifying each of the clinical manifestations considered probable, possible or directly related to the use of the drugs ingested.

[2] = test system: type 2 diabetic patients; conditions: cited from earlier work
[3] = clinical; conditions: both, human, in vivo

Structure (SMILES)	Blood glucose between meals (change) [1]	Glucosylated hemoglobin HbA1c (change) [1]	Post-prandial blood glucose (change) [1]	potency relative to glibenclamide ([2]; R. Groomis et al., Endocrinology 13:117-121 (2000))	incidence of severe hypoglycemia versus glibenclamide ([2]; type 2 diabetic patients, A. Holstein et al. (2000))	half-life [3]
CCC1=C(C)CN(C(=O)NCCc2ccc(S(=O)(=O)NC(=O)N[C@H]3CC[C@H](C)CC3)cc2)C1=O [glimepiride]	+0.68	+0.25	+0.99	two times higher	lower incidence	3.73 h
CN(C)C(=N)N=C(N)N [metformin]	+0.75	+0.06	+1.08			
